Biological target: Beta-2 adrenergic receptor (Homo sapiens) (UniProt P07550)
Assay: beta2AR agonists driving receptor internalization, dose response, cell-based, FAP fluorogen, flow cytometry, powder set 4 (AID 651872)
Conditions: AM2.2-beta2AR cells, 90 min;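 active = compounds whose fitted half-maximal concentration for receptor internalization is under 10 micromolar; inactive = the rest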

Sequence of Beta-2 adrenergic receptor (Homo sapiens) (P07550 whole entry, looked up): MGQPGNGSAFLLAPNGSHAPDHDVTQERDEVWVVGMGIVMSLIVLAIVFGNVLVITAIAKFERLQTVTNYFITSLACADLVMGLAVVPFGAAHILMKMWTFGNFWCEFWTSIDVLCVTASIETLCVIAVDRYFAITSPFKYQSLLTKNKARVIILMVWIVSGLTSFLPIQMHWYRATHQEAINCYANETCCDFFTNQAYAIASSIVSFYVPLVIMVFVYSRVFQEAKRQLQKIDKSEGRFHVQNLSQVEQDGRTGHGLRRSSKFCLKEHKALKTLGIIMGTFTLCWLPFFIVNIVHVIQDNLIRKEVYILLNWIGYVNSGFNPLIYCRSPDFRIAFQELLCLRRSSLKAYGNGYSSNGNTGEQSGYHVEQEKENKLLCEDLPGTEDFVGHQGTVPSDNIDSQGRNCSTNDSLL

EC50, active:
Cc1ccc(S(=O)(=O)N(C)CC(=O)N2CCN(c3ccccn3)CC2)cc1 0.0016 µM, O=C(CN(Cc1ccccc1)S(=O)(=O)c1ccc(Cl)cc1)N1CCN(c2ccccn2)CC1 0.208 µM, CC(=O)Nc1ccc(S(=O)(=O)N2CCCCC2c2cccnc2)cc1 (stereo unspecified) 0.0105 µM, COc1ccccc1N1CCN(C(=O)CN(C)S(=O)(=O)c2ccc(C)cc2)CC1 0.676 µM, CN(CC(=O)N1CCN(c2cccc(C(F)(F)F)c2)CC1)S(=O)(=O)c1ccc(F)cc1 9.64 µM, O=C(C1CCC(=O)N1S(=O)(=O)c1ccccc1)N1CCN(c2ccccn2)CC1 (stereo unspecified) 0.0262 µM

Source: PubChem BioAssay AID651872 (NMMLSC, 2012)
